Data published in patent US9062037B2, “Tazarotene derivatives” (Stiefel Laboratories, Inc., priority 2009, dated 2015).
Where two headings read alike, the source gives them in different places.

Legend:
[1] = test system: Reconstructed human epidermis (RHE) tissues; assay: RT-qPCR gene expression of K10, K19, filaggrin, K4 and K13 in reconstructed human epidermis (RHE) cultures; format: cell-based; conditions: 72 h, 2.83 mM in OD/10% DMSO, 6 μl
Procedure: Reconstructed human epidermis (RHE) tissues were cultured in-house as previously described by Poumay et al. Briefly, polycarbonate culture inserts (12 mm diameter and 0.4 μm pore size, Millipore) were filled with 150 μL of a suspension containing approximately 5×10^5 primary adult human keratinocytes. The inserts received another 500 μL of keratinocyte culture media and were placed in a 6-well plate (1 insert/well) containing 2.5 mL of RHE Growth Media (Epilife media +1.5 mM CaCl2). RHE cultures were incubated at 37° C. in a humidified atmosphere containing 5% CO2, for 24 hours. Subsequently (on Day 0), RHE cultures were exposed to the air-liquid interface by removing the RHE Growth Media from the top of the cultures, and replacing with 1.5 mL/well of RHE Growth Media containing 50 μg/mL vitamin C. Media was changed every other day until the cultures were dosed with Test Articles. A stock solution of 0.1% tazarotene (2.83 mM at 99.5% purity) in OD/10% DMSO was prepared. For tazarotene benzoate, hydroxytazarotenic acid, keto tazarotenic acid, keto tazarotene, and tazarotene nicotinate, a 10 mg/mL stock solution (in DMSO) was already prepared. From this stock solution, a 2.83 mM working solution (in octyldodecanol) was prepared. All other tested compounds were resuspended in DMSO and OD to obtain a final concentration of 2.83 mM in OD/10% DMSO. On Day 12, the cultures were placed in 60 mm petri dishes containing 3 mL of RHE Growth Media (+VitC). Test articles (6 μl) were applied to triplicate cultures and cultures were incubated at 37° C. for 72 hours. Untreated and OD alone served as negative controls. At the end of the incubation period, the growth media was collected and stored at −20° C. The tissues were cut in half: one half was placed in 10% NBF for histology, and the other half was placed in RNAlater™ solution for RT-qPCR. RNA was isolated and concentrations were determined using a NanoDrop spectrophotometer. In addition to using the same amount of RNA for each sample, data was normalized to internal GAPDH mRNA levels and is expressed as relative quantification (RQ) to untreated controls. RNA extracts from each replicate were amplified using RT-qPCR. The relative gene expression of five biomarkers was determined: Keratin 10, Keratin 19, Filaggrin, Keratin 4, and Keratin 13.

[2] = Metabolism in the presence of human skin microsomes; conditions: human skin microsomes; paraoxon 0, 10 or 100 μM
Procedure: Hepatic microsomal reactions were carried out in microcentrifuge tubes in the following manner. Human liver microsomes (0.5 or 1.0 mg/ml protein), Test Article (1 or 10 μM), paraoxon (0, 10 or 100 μM), NADPH regenerating system (10 mM glucose-6-phosphate, 1 unit/ml glucose-6-phosphate dehydrogenase, 1 mM NADP^+), magnesium chloride (5 mM) in 0.1 M potassium phosphate buffer, pH 7.4 were incubated at 37° C. in a shaking water bath. Reactions were initiated with the addition of substrate with the exception of the zero-time incubations. The total reaction volume was 0.2 ml. The reactions were incubated for 15, 30, 45 or 60 minutes, terminated with 0.2 ml ice-cold acetonitrile and then placed on ice. For zero-time incubations, ice cold acetonitrile was added to the mixture containing microsomes, along with NADPH regenerating system, magnesium chloride in phosphate buffer and the Test Article. Each time point was carried out in triplicate.
Five time points were chosen, but because of the limitation of human skin microsome supply, each one was carried out in duplicate. Skin microsomal reactions were carried out as described above for hepatic microsomal reactions with the following two exceptions. Firstly, the total reaction volume was 0.1 mL. Secondly, incubations were terminated with 0.1 mL acetonitrile.

[3] = read-out: K4 Fold Change vs Untreated/OD controls (upregulation)
[4] = read-out: K13 Fold Change vs Untreated/OD controls (upregulation)
[5] = read-out: K19 Fold Change vs Untreated/OD controls (upregulation)
[6] = human liver microsomes, paraoxon 0, 10 or 100 μM

In the case of `CCOC(=O)c1ccc(C#Cc2ccc3c(c2)C(C)(C)CC(OC(=O)C2CCN(C)CC2)S3)nc1` (stereo not drawn) [Compound 23], the fold induction at 2830 µM [1, 3] was 73, the fold induction at 2830 µM [1, 4] was 19 and the fold induction at 2830 µM [1, 5] was 33 to 43.
Work on `CCOC(=O)c1ccc(C#Cc2ccc3c(c2)C(C)(C)CC(=O)S3)nc1` [Compound 12, ethyl 6-((4,4-dimethyl-2-oxothiochroman-6-yl)ethynyl)nicotinate] yielded a fold induction at 2830 µM [1, 3] of 103 to 180, a fold induction at 2830 µM [1, 4] of 15 and a fold induction at 2830 µM [1, 5] of 27.
Compound `CCOC(=O)c1ccc(C#Cc2ccc3c(c2)C(C)(C)CC(OC(=O)COC)S3)nc1` (stereo not drawn) [Compound 16] has a fold induction at 2830 µM [1, 3] of 69, a fold induction at 2830 µM [1, 4] of 9 and a fold induction at 2830 µM [1, 5] of 20.
`CCOC(=O)c1ccc(C#Cc2ccc3c(c2)C(C)(C)CC(OC(=O)[C@@H](N)C(C)C)S3)nc1` (stereo partly drawn) [Compound 29, 6-[2-((S)-2-Amino-3-methyl-butyryloxy)-4,4-dimethyl-thiochroman-6-ylethynyl]-nicotinic acid ethyl ester] gave a fold induction at 2830 µM [1, 3] of 71, a fold induction at 2830 µM [1, 4] of 13 and a fold induction at 2830 µM [1, 5] of 29.
Compound `CCOC(=O)c1ccc(C#Cc2ccc3c(c2)C(C)(C)C[C@H](OC(=O)c2cccnc2)S3)nc1` [Compound 9, (R)-6-[4,4-dimethyl-2-(pyridine-3-carbonyloxy)thiochroman-6-ylethynyl]nicotinic acid ethyl ester] has a fold induction at 2830 µM [1, 3] of 32, a fold induction at 2830 µM [1, 4] of 5 and a fold induction at 2830 µM [1, 5] of 17.
In the case of `CCOC(=O)c1ccc(C#Cc2ccc3c(c2)C(C)(C)C[C@@H](OC(=O)c2ccccc2)S3)nc1` [Compound 5, (S)-6-(2-(2-benzoyloxy-4,4-dimethylthiochroman-6-yl)ethynyl) nicotinic acid, ethyl ester], the fold induction at 2830 µM [1, 3] was 45, the fold induction at 2830 µM [1, 4] was 7 and the fold induction at 2830 µM [1, 5] was 8.
With `CCOC(=O)c1ccc(C#Cc2ccc3c(c2)C(C)(C)CC(OC(=O)CC)S3)nc1` (stereo not drawn) [Compound 24] the fold induction at 2830 µM [1, 3] was 74, the fold induction at 2830 µM [1, 4] was 23 and the fold induction at 2830 µM [1, 5] was 33 to 43.
For `CCOC(=O)c1ccc(C#Cc2ccc3c(c2)C(C)(C)CC(OC(=O)C2CCOCC2)S3)nc1` (stereo not drawn) [Compound 26], the fold induction at 2830 µM [1, 3] was 90, the fold induction at 2830 µM [1, 4] was 10 and the fold induction at 2830 µM [1, 5] was 20.
`CC/C=C\C/C=C\C/C=C\CCCCCCC(=O)OC1CC(C)(C)c2cc(C#Cc3ccc(C(=O)OCC)cn3)ccc2S1` (stereo not drawn) [Compound 22] showed a fold induction at 2830 µM [1, 3] of 38, a fold induction at 2830 µM [1, 4] of 10 and a fold induction at 2830 µM [1, 5] of 12.
Work on `CCOC(=O)c1ccc(C#Cc2ccc3c(c2)C(C)(C)CC(OC(=O)CCCCCCCC(=O)OC)S3)nc1` (stereo not drawn) [Compound 28] yielded a fold induction at 2830 µM [1, 3] of 103 to 180, a fold induction at 2830 µM [1, 4] of 18 and a fold induction at 2830 µM [1, 5] of 30.
In the case of `CCOP(=O)(OCC)Oc1ccc([N+](=O)[O-])cc1` [Paraoxon], the “inhibition of the metabolism of tazarotenic acid to tazarotenic acid sulfoxide” value (CYP- and FMO-mediated reaction) was “did not inhibit”, the “inhibition of tazarotene benzoate metabolism to hydroxy tazarotenic acid” value [6] was “inhibited” and the “inhibition of tazarotene metabolism to tazarotenic acid” value [6] was “inhibited”. The “inhibition of tazarotene sulfoxide metabolism to tazarotenic acid sulfoxide” value [6] was “inhibited” and the “inhibition of tazarotene benzoate metabolism to hydroxy tazarotenic acid” value [2] was “inhibited”.
In the case of `CCOC(=O)c1ccc(C#Cc2ccc3c(c2)C(C)(C)CC(OC(=O)C(C)C)S3)nc1` (stereo not drawn) [Compound 20, Ethyl 6-[(2-isobutyryloxy-4,4-dimethyl-3,4-dihydro-2-thiochromen-6-yl)ethynyl]pyridine-3-carboxylate], the fold induction at 2830 µM [1, 3] was 22, the fold induction at 2830 µM [1, 4] was 6 and the fold induction at 2830 µM [1, 5] was 15.
`CCOC(=O)c1ccc(C#Cc2ccc3c(c2)C(C)(C)CC(O)S3)nc1` (stereo not drawn) [Compound 14, Ethyl 6-[(2-hydroxy-4,4-dimethyl-3,4-dihydro-2-thiochromen-6-yl)ethynyl]pyridine-3-carboxylate] showed a fold induction at 2830 µM [1, 3] of 87, a fold induction at 2830 µM [1, 4] of 20 and a fold induction at 2830 µM [1, 5] of 29.
For `CCOC(=O)c1ccc(C#Cc2ccc3c(c2)C(C)(C)CC(OC(C)=O)S3)nc1` (stereo not drawn) [Compound 17], the fold induction at 2830 µM [1, 3] was 103 to 180, the fold induction at 2830 µM [1, 4] was 15 and the fold induction at 2830 µM [1, 5] was 24.
Work on `CCOC(=O)c1ccc(C#Cc2ccc3c(c2)C(C)(C)CC(OC(=O)CO)S3)nc1` (stereo not drawn) [Compound 15, 6-[2-(2-Hydroxy-acetoxy)-4,4-dimethyl-thiochroman-6-ylethynyl]-nicotinic acid ethyl ester] yielded a fold induction at 2830 µM [1, 3] of 64, a fold induction at 2830 µM [1, 4] of 12 and a fold induction at 2830 µM [1, 5] of 33 to 43.
Compound `CCCCCCCCCCCCCCCC(=O)OC1CC(C)(C)c2cc(C#Cc3ccc(C(=O)OCC)cn3)ccc2S1` (stereo not drawn) [Compound 13] has a fold induction at 2830 µM [1, 3] of 38, a fold induction at 2830 µM [1, 4] of 6 and a fold induction at 2830 µM [1, 5] of 4.
For `CCOc1ccc2ccc(=O)oc2c1` [7-ethoxycoumarin], the “metabolized by human liver microsomes (positive control)” value (initial concentration 10 μM, 0 or 30 minutes) was “as expected”.
With `CC1(C)CC(O)Sc2ccc(C#Cc3ccc(C(=O)O)cn3)cc21` (stereo not drawn) [Compound 10, 6-((2-hydroxy-4,4-dimethylthiochroman-6-yl)ethynyl)nicotinic acid] the fold induction at 2830 µM [1, 3] was 65, the fold induction at 2830 µM [1, 4] was 11 and the fold induction at 2830 µM [1, 5] was 25.
For `CCOC(=O)c1ccc(C#Cc2ccc3c(c2)C(C)(C)CC(OC(=O)c2ccccc2O)S3)nc1` (stereo not drawn) [Compound 25, Ethyl 6-[(2-salicylicyl-4,4-dimethyl-3,4-dihydro-2-thiochromen-6-yl)ethynyl]pyridine-3-carboxylate], the fold induction at 2830 µM [1, 3] was 103 to 180, the fold induction at 2830 µM [1, 4] was 17 and the fold induction at 2830 µM [1, 5] was 23.
Compound `CC1(C)CC(=O)Sc2ccc(C#Cc3ccc(C(=O)O)cn3)cc21` [Compound 11, 6-((4,4-dimethyl-2-oxothiochroman-6-yl)ethynyl)nicotinic acid] has a fold induction at 2830 µM [1, 3] of 52, a fold induction at 2830 µM [1, 4] of 20 and a fold induction at 2830 µM [1, 5] of 21.
`CCCC(=O)OC1CC(C)(C)c2cc(C#Cc3ccc(C(=O)OCC)cn3)ccc2S1` (stereo not drawn) [Compound 18, Ethyl 6-[(2-n-butyryloxyl-4,4-dimethyl-3,4-dihydro-2-thiochromen-6-yl)ethynyl]pyridine-3-carboxylate] gave a fold induction at 2830 µM [1, 3] of 60, a fold induction at 2830 µM [1, 4] of 9 and a fold induction at 2830 µM [1, 5] of 22.
In the case of `CCOC(=O)c1ccc(C#Cc2ccc3c(c2)C(C)(C)CC(OC(=O)CCCCC(=O)OC)S3)nc1` (stereo not drawn) [Compound 27, Ethyl 6-[(2-monomethyladopyl-4,4-dimethyl-3,4-dihydro-2-thiochromen-6-yl)ethynyl]pyridine-3-carboxylate], the fold induction at 2830 µM [1, 3] was 70, the fold induction at 2830 µM [1, 4] was 19 and the fold induction at 2830 µM [1, 5] was 33 to 43.
`CCOC(=O)c1ccc(C#Cc2ccc3c(c2)C(C)(C)C[C@@H](OC(=O)c2cccnc2)S3)nc1` [Compound 8, (S)-6-[4,4-dimethyl-2-(pyridine-3-carbonyloxy)thiochroman-6-ylethynyl]nicotinic acid ethyl ester] showed a fold induction at 2830 µM [1, 3] of 35, a fold induction at 2830 µM [1, 4] of 7 and a fold induction at 2830 µM [1, 5] of 18.
In the case of `CCCCCCCCCCCC(=O)OC1CC(C)(C)c2cc(C#Cc3ccc(C(=O)OCC)cn3)ccc2S1` (stereo not drawn) [Compound 19], the fold induction at 2830 µM [1, 3] was 19, the fold induction at 2830 µM [1, 4] was 2 and the fold induction at 2830 µM [1, 5] was 2.
`CCOC(=O)c1ccc(C#Cc2ccc3c(c2)C(C)(C)C[C@H](OC(=O)c2ccccc2)S3)nc1` [Compound 6, (R)-6-(2-(2-benzoyloxy-4,4-dimethylthiochroman-6-yl)ethynyl)nicotinic acid, ethyl ester] gave a fold induction at 2830 µM [1, 3] of 20, a fold induction at 2830 µM [1, 4] of 7 and a fold induction at 2830 µM [1, 5] of 8.
